# Measurements: US20180110754A1, “CENICRIVIROC FOR THE TREATMENT OF FIBROSIS” (Tobira Therapeutics, Inc., priority 2015, published 2018)
# Assay: Study 202: treatment-emergent laboratory abnormalities (DAIDS grades; CPK, ALT, AST, bilirubin)
# Type: in vivo
# Conditions: for Aspartate aminotransferase (AST) increased (Grade 3 or 4), n subjects / Bilirubin abnormality, any grade, n subjects / Bilirubin, worst Grade 1, n subjects / Bilirubin, worst Grade 2, n subjects / Bilirubin, worst Grade 3, n subjects / Bilirubin, worst Grade 4, n subjects / CPK increased, worst Grade 3, n subjects / CPK increased, worst Grade 4, n subjects / Creatine phosphokinase (CPK) increased (Grade 3 or 4), n subjects / Fibrinogen decreased (Grade 3 or 4), n subjects / Fibrinogen decreased, worst Grade 3, n subjects / Fibrinogen decreased, worst Grade 4, n subjects / Hemoglobin decreased (Grade 3 or 4), n subjects / Hemoglobin decreased, worst Grade 3, n subjects / Hemoglobin decreased, worst Grade 4, n subjects / Neutrophils decreased (Grade 3 or 4), n subjects / Neutrophils decreased, worst Grade 3, n subjects / Neutrophils decreased, worst Grade 4, n subjects / Phosphate decreased (Grade 3 or 4), n subjects / Phosphate decreased, worst Grade 3, n subjects / Phosphate decreased, worst Grade 4, n subjects / Prothrombin time/INR increased, worst Grade 3, n subjects / Prothrombin time/INR increased, worst Grade 4, n subjects / ALT, worst Grade 1, n subjects / ALT, worst Grade 2, n subjects / ALT, worst Grade 3, n subjects / ALT, worst Grade 4, n subjects / AST, worst Grade 1, n subjects / AST, worst Grade 2, n subjects / AST, worst Grade 3, n subjects / AST, worst Grade 4, n subjects / Alanine aminotransferase (ALT) abnormality, any grade, n subjects / Any Grade 3 or Grade 4 laboratory abnormality, n subjects / Aspartate aminotransferase (AST) abnormality, any grade, n subjects: through Week 48
# Source text: The number of subjects with graded treatment-emergent laboratory abnormalities in selected liver parameters of interest is shown in Table 34. No Grade 4 ALT or AST elevations were observed. Except for one Grade 3 AST elevation, all ALT and AST elevations were Grade 1 or Grade 2. […] All abnormalities in bilirubin were Grade 1 or Grade 2. […]
# [1] = All CVC (N = 115), EFV (N = 28)
structure (smiles),measurement,setting,value
"CCCCOCCOc1ccc(-c2ccc3c(c2)/C=C(/C(=O)Nc2ccc([S@@+]([O-])Cc4cncn4CCC)cc2)CCCN3CC(C)C)cc1 [CVC, (S)-8-[4-(2-Butoxyethoxy)phenyl]-1-isobutyl-N-(4-{[(1-propyl-1H-imidazol-5-yl)methyl]sulfinyl}phenyl)-1,2,3,4-tetrahydro-1-benzazocine-5-carboxamide]","Aspartate aminotransferase (AST) increased (Grade 3 or 4), n subjects",[1],1
same,"Bilirubin abnormality, any grade, n subjects",[1],7
same,"Bilirubin, worst Grade 1, n subjects",[1],3
same,"Bilirubin, worst Grade 2, n subjects",[1],4
same,"Bilirubin, worst Grade 3, n subjects",[1],0
same,"Bilirubin, worst Grade 4, n subjects",[1],0
same,"CPK increased, worst Grade 3, n subjects",[1],8
same,"CPK increased, worst Grade 4, n subjects",[1],4
same,"Creatine phosphokinase (CPK) increased (Grade 3 or 4), n subjects",[1],12
same,"Fibrinogen decreased (Grade 3 or 4), n subjects",[1],2
same,"Fibrinogen decreased, worst Grade 3, n subjects",[1],2
same,"Fibrinogen decreased, worst Grade 4, n subjects",[1],0
same,"Hemoglobin decreased (Grade 3 or 4), n subjects",[1],1
same,"Hemoglobin decreased, worst Grade 3, n subjects",[1],0
same,"Hemoglobin decreased, worst Grade 4, n subjects",[1],1
same,"Neutrophils decreased (Grade 3 or 4), n subjects",[1],2
same,"Neutrophils decreased, worst Grade 3, n subjects",[1],2
same,"Neutrophils decreased, worst Grade 4, n subjects",[1],0
same,"Phosphate decreased (Grade 3 or 4), n subjects",[1],4
same,"Phosphate decreased, worst Grade 3, n subjects",[1],4
same,"Phosphate decreased, worst Grade 4, n subjects",[1],0
same,"Prothrombin time/INR increased, worst Grade 3, n subjects",[1],0
same,"Prothrombin time/INR increased, worst Grade 4, n subjects",[1],1
same,Subjects with Grade 3 or 4 increases in CPK,CVC 100 mg,3 subjects
same,"Any graded (Grade 1-4) treatment-emergent laboratory abnormality, n subjects",CVC 100 mg (N = 58),51 (88%)
same,"Laboratory abnormality, worst Grade 1, n subjects",CVC 100 mg (N = 58),21 (36%)
same,"Laboratory abnormality, worst Grade 2, n subjects",CVC 100 mg (N = 58),23 (40%)
same,"ALT, worst Grade 1, n subjects",CVC 100 mg (N = 58),4
same,"ALT, worst Grade 2, n subjects",CVC 100 mg (N = 58),3
same,"ALT, worst Grade 3, n subjects",CVC 100 mg (N = 58),0
same,"ALT, worst Grade 4, n subjects",CVC 100 mg (N = 58),0
same,"AST, worst Grade 1, n subjects",CVC 100 mg (N = 58),8
same,"AST, worst Grade 2, n subjects",CVC 100 mg (N = 58),2
same,"AST, worst Grade 3, n subjects",CVC 100 mg (N = 58),1
same,"AST, worst Grade 4, n subjects",CVC 100 mg (N = 58),0
same,"Alanine aminotransferase (ALT) abnormality, any grade, n subjects",CVC 100 mg (N = 58),7
same,"Any Grade 3 or Grade 4 laboratory abnormality, n subjects",CVC 100 mg (N = 58),7
same,"Aspartate aminotransferase (AST) abnormality, any grade, n subjects",CVC 100 mg (N = 58),11
same,"Aspartate aminotransferase (AST) increased (Grade 3 or 4), n subjects",CVC 100 mg (N = 58),1
same,"Bilirubin abnormality, any grade, n subjects",CVC 100 mg (N = 58),4
same,"Bilirubin, worst Grade 1, n subjects",CVC 100 mg (N = 58),1
same,"Bilirubin, worst Grade 2, n subjects",CVC 100 mg (N = 58),3
same,"Bilirubin, worst Grade 3, n subjects",CVC 100 mg (N = 58),0
same,"Bilirubin, worst Grade 4, n subjects",CVC 100 mg (N = 58),0
same,"CPK increased, worst Grade 3, n subjects",CVC 100 mg (N = 58),2
same,"CPK increased, worst Grade 4, n subjects",CVC 100 mg (N = 58),1
same,"Creatine phosphokinase (CPK) increased (Grade 3 or 4), n subjects",CVC 100 mg (N = 58),3
same,"Fibrinogen decreased (Grade 3 or 4), n subjects",CVC 100 mg (N = 58),0
same,"Fibrinogen decreased, worst Grade 3, n subjects",CVC 100 mg (N = 58),0
same,"Fibrinogen decreased, worst Grade 4, n subjects",CVC 100 mg (N = 58),0
same,"Hemoglobin decreased (Grade 3 or 4), n subjects",CVC 100 mg (N = 58),1
same,"Hemoglobin decreased, worst Grade 3, n subjects",CVC 100 mg (N = 58),0
same,"Hemoglobin decreased, worst Grade 4, n subjects",CVC 100 mg (N = 58),1
same,"Neutrophils decreased (Grade 3 or 4), n subjects",CVC 100 mg (N = 58),2
same,"Neutrophils decreased, worst Grade 3, n subjects",CVC 100 mg (N = 58),2
same,"Neutrophils decreased, worst Grade 4, n subjects",CVC 100 mg (N = 58),0
same,"Phosphate decreased (Grade 3 or 4), n subjects",CVC 100 mg (N = 58),2
same,"Phosphate decreased, worst Grade 3, n subjects",CVC 100 mg (N = 58),2
same,"Phosphate decreased, worst Grade 4, n subjects",CVC 100 mg (N = 58),0
same,"Prothrombin time/INR increased, worst Grade 3, n subjects",CVC 100 mg (N = 58),0
same,"Prothrombin time/INR increased, worst Grade 4, n subjects",CVC 100 mg (N = 58),1
same,Subjects with Grade 3 or 4 increases in CPK,CVC 200 mg,9 subjects
same,"Any graded (Grade 1-4) treatment-emergent laboratory abnormality, n subjects",CVC 200 mg (N = 57),55
same,"Laboratory abnormality, worst Grade 1, n subjects",CVC 200 mg (N = 57),16
same,"Laboratory abnormality, worst Grade 2, n subjects",CVC 200 mg (N = 57),27
same,"Laboratory abnormality, worst Grade 3 (Any Grade 3 abnormality), n subjects",CVC 200 mg (N = 57),9
same,"Laboratory abnormality, worst Grade 4 (Any Grade 4 abnormality), n subjects",CVC 200 mg (N = 57),3
same,"ALT, worst Grade 1, n subjects",CVC 200 mg (N = 57),6
same,"ALT, worst Grade 2, n subjects",CVC 200 mg (N = 57),2
same,"ALT, worst Grade 3, n subjects",CVC 200 mg (N = 57),0
same,"ALT, worst Grade 4, n subjects",CVC 200 mg (N = 57),0
same,"AST, worst Grade 1, n subjects",CVC 200 mg (N = 57),6
same,"AST, worst Grade 2, n subjects",CVC 200 mg (N = 57),4
same,"AST, worst Grade 3, n subjects",CVC 200 mg (N = 57),0
same,"AST, worst Grade 4, n subjects",CVC 200 mg (N = 57),0
same,"Alanine aminotransferase (ALT) abnormality, any grade, n subjects",CVC 200 mg (N = 57),8
same,"Any Grade 3 or Grade 4 laboratory abnormality, n subjects",CVC 200 mg (N = 57),12
same,"Aspartate aminotransferase (AST) abnormality, any grade, n subjects",CVC 200 mg (N = 57),10
same,"Aspartate aminotransferase (AST) increased (Grade 3 or 4), n subjects",CVC 200 mg (N = 57),0
same,"Bilirubin abnormality, any grade, n subjects",CVC 200 mg (N = 57),3
same,"Bilirubin, worst Grade 1, n subjects",CVC 200 mg (N = 57),2
same,"Bilirubin, worst Grade 2, n subjects",CVC 200 mg (N = 57),1
same,"Bilirubin, worst Grade 3, n subjects",CVC 200 mg (N = 57),0
same,"Bilirubin, worst Grade 4, n subjects",CVC 200 mg (N = 57),0
same,"CPK increased, worst Grade 3, n subjects",CVC 200 mg (N = 57),6
same,"CPK increased, worst Grade 4, n subjects",CVC 200 mg (N = 57),3
same,"Creatine phosphokinase (CPK) increased (Grade 3 or 4), n subjects",CVC 200 mg (N = 57),9
same,"Fibrinogen decreased (Grade 3 or 4), n subjects",CVC 200 mg (N = 57),2
same,"Fibrinogen decreased, worst Grade 3, n subjects",CVC 200 mg (N = 57),2
same,"Fibrinogen decreased, worst Grade 4, n subjects",CVC 200 mg (N = 57),0
same,"Hemoglobin decreased (Grade 3 or 4), n subjects",CVC 200 mg (N = 57),0
same,"Hemoglobin decreased, worst Grade 3, n subjects",CVC 200 mg (N = 57),0
same,"Hemoglobin decreased, worst Grade 4, n subjects",CVC 200 mg (N = 57),0
same,"Neutrophils decreased (Grade 3 or 4), n subjects",CVC 200 mg (N = 57),0
same,"Neutrophils decreased, worst Grade 3, n subjects",CVC 200 mg (N = 57),0
same,"Neutrophils decreased, worst Grade 4, n subjects",CVC 200 mg (N = 57),0
same,"Phosphate decreased (Grade 3 or 4), n subjects",CVC 200 mg (N = 57),2
same,"Phosphate decreased, worst Grade 3, n subjects",CVC 200 mg (N = 57),2
same,"Phosphate decreased, worst Grade 4, n subjects",CVC 200 mg (N = 57),0
same,"Prothrombin time/INR increased, worst Grade 3, n subjects",CVC 200 mg (N = 57),0
same,"Prothrombin time/INR increased, worst Grade 4, n subjects",CVC 200 mg (N = 57),0
